Assay results from paper PMC8480782, “Efficient Dimerization Disruption of Leishmania infantum Trypanothione Reductase by Triazole-phenyl-thiazoles” (Journal of Medicinal Chemistry, 2021).

Key:
[1] = target: T1, LiTryR (Leishmania infantum, UniProt A4HSF7); assay: biochemical; assay type: biochemical; settings: for IC50: LiTryR, 1 μM TS2, maximum assayed 75 μM, read-out: IC50^act, TryR oxidoreductase activity
T1 construct: HIS (N); made in house; host or cells: E. coli BL21 (DE3) Rossetta
Description: A concentration of 1 μM TS2 was used for this initial screening. This low substrate concentration is sufficient for comparison of compound inhibitory activity in the oxidoreductase assay.
Recombinant L. infantum TryR (LiTryR) HIS-tagged and HIS-FLAG-tagged versions were used for all LiTryR oxidoreductase activity and dimer quantitation assays. These LiTryR versions were purified from Escherichia coli as previously described.[25] Briefly, pRSETA-HIS-LiTryR construct alone or in combination with the pET24a-FLAG-LiTryR construct was transformed into BL21 (DE3) Rossetta E. coli strain. An overnight E. coli culture grown at 37 °C in Luria–Bertani (LB) medium with the appropriate antibiotics and vigorous shaking was diluted (1:100) in the same medium and allowed to grow in the same conditions until the OD600 was 0.5. Then, LiTryR expression was induced by addition of 1 mM isopropyl-β-D-1-thiogalactopyranoside (IPTG) for 16 h at 26 °C. The cells were centrifuged for 5 min at 9000g and 4 °C and the wet pellet resuspended in lysis buffer (50 mM Tris, pH 7, 300 mM NaCl, 25 mM imidazole, protease inhibitor cocktail, and 1 mg/mL lysozyme). […] The supernatant was sonicated again as previously described for 10 min and loaded on a HisTrap column (GE Healthcare, Chicago, IL) for 16 h at 4 °C using a P-1 peristaltic pump (GE Healthcare, Chicago, IL). Once loaded, the HisTrap column was connected to an ÄKTA purifier UPC 10 (GE Healthcare, Chicago, IL) and washed using a 5–10% gradient between buffer A (50 mM Tris, pH 7 and 300 mM NaCl) and B (50 mM Tris, pH 7, 300 mM NaCl, and 500 mM imidazole). LiTryR was eluted using a 40% gradient between buffers A and B. Fractions containing recombinant LiTryR were pooled and loaded into a HiPrep 26/10 Desalting column (GE Healthcare, Chicago, IL) previously equilibrated with buffer A. Finally, LiTryR was concentrated to 2 mg/mL using an Amicon Ultra-15 50K (Merck Millipore, Burlington, MA) and an equal volume of glycerol was added before storing at −20 °C.
TryR oxidoreductase activity was determined spectrophotometrically using a modified version of the DTNB-coupled assay described by Hamilton et al.[52] Briefly, reactions were carried out at 26 °C in 250 μL of N-(2-hydroxyethyl)piperazine-N′-ethanesulfonic acid (HEPES) buffer (pH 7.5, 40 mM) containing ethylenediaminetetraacetic acid (EDTA) (1 mM), NADP^+ (30 μM), DTNB (25 μM), TS2 (1 μM), NADPH (150 μM), glycerol (0.02%), DMSO (1.75%), and recombinant TryR (7 nM). […] Reactions were started by addition of a mixture of NADPH and TS2.
TryR oxidoreductase activity was monitored at 26 °C by an increase in absorbance at 412 nm in an EnSpire Multimode Plate Reader (PerkinElmer, Waltham, MA). […] (TNB) concentration was obtained by multiplying the absorbance values by 100 (50 μM TNB generates 0.5 arbitrary units of absorbance at 412 nm). In this DTNB-coupled assay, one molecule of T(SH)2 reduces one molecule of DTNB, producing two TNB molecules. All of the assays were conducted in at least three independent experiments. Data were analyzed using a nonlinear regression model with GraFit 6 software (Erithacus, Horley, Surrey, U.K.).

[2] = system: THP-1 monocyte-derived macrophages; assay: Cytotoxicity in THP-1 monocyte-derived macrophages (LDH activity); assay type: cell-based, human; settings: Homo sapiens, THP-1; LDH activity
Description: THP-1 cells were grown in RPMI-1640 medium (Gibco, Leiden, The Netherlands) supplemented with 10% heat-inactivated FCS, antibiotics, 10 mM HEPES, 2 mM glutamine, and 1 mM sodium pyruvate, pH 7.2, at 37 °C and 5% CO2.
THP-1 monocytes were seeded in a 48-well plate at a concentration of 5 × 10^5 cells/mL (250 μL/well) in RPMI complete medium supplemented with phorbol 12-myristate 13-acetate (PMA) (100 ng/mL). Differentiation of THP-1 monocytes to macrophages was allowed for 24 h at 37 °C and 5% CO2. THP-1-derived macrophages were infected with GFP-expressing axenic amastigotes at 5 × 10^6 parasites/mL in RPMI complete medium for 24 h (250 μL/well). Extracellular amastigotes were washed twice with PBS. The remaining extracellular parasites were challenged for 24 h with THP-1 medium supplemented with 10% horse serum (Gibco) instead of FCS. Cells were washed twice with PBS, and treatments were performed in 250 μL of fresh RPMI medium supplemented with 10% horse serum for 72 h at 37 °C and 5% CO2. Afterward, treatments were removed by two PBS washes. Lysis of infected cells was performed with 120 μL of SDS 0.005% (w/v) in PBS. After a 30 min incubation at 37 °C, lysis was stopped by adding RPMI complete medium with PI at 20 μg/mL (120 μL/well). The lysates were transferred to a 96-well plate (200 μL/well), and the GFP^+ amastigotes extracted from the infected cells were acquired by a Beckman Coulter FC500 flow cytometer. Each sample (100 μL) was acquired for 20 s.
Cytotoxicity of THP-1 infected macrophages was determined using an in-house developed lactate dehydrogenase (LDH) activity assay. LDH activity assays from the remaining cell lysates (100 μL/well) were carried out at 37 °C in 250 μL of Tris/HCl buffer (pH 8.9, 50 mM) containing DL-lactate (840 mM), NAD^+ (450 μM), 1-methoxyphenazine methosulfate (45 μM), and nitro blue tetrazolium chloride (40 μM). The color intensity of the generated formazan dye was monitored at 570 nm using an EnSpire Multimode Plate Reader (PerkinElmer, Waltham, MA). CC50 values were calculated using a nonlinear regression model with GraFit 6 software (Erithacus, Horley, Surrey, U.K.).

T1 sequence (A4HSF7 1-491): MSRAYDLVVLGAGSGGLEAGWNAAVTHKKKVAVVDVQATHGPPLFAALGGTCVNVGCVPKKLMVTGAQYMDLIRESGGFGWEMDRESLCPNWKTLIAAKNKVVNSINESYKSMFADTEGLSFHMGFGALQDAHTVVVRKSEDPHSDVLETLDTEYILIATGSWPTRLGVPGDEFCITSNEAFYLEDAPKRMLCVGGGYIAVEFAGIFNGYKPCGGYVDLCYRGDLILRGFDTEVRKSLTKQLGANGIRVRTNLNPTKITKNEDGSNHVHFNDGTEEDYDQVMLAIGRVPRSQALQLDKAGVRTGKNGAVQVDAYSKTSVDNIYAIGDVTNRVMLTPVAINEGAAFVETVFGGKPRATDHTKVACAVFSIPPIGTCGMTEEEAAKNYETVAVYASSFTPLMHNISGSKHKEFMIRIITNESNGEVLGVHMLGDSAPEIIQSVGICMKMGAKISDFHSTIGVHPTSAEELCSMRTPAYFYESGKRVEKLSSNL

Row | Structure (SMILES) | IC50 [1] | EC50 [2] | fold more potent than 12n, IC50^act ([1]; versus monomeric 12n)
1 | NCCCCc1cn(-c2ccc(-c3nc(-c4ccccc4)cs3)c(OCCN3CCNC3=O)c2)nn1.O=C(O)C(F)(F)F [12n] | 11.2 ± 0.2 µM | – | –
2 | NCCNCc1nccn1-c1ccc(-c2nc(CCc3ccc4ccccc4c3)cs2)c(OCCN2CCNC2=O)c1 [compound 2, reference compound] | 5.1 ± 0.4 µM | 27.9 ± 4.4 µM | –
3 | NCCCCc1cn(-c2ccc(-c3nc(CCc4ccc5oc6ccccc6c5c4)cs3)c(OCCN3CCNC3=O)c2)nn1.O=C(O)C(F)(F)F [12s] | 6.6 ± 1.9 µM | – | –
4 | NCCNCc1nccn1-c1ccc(-c2nc(CCc3ccc(-c4ccccc4)cc3)cs2)c(OCCN2CCNC2=O)c1 [compound 3, reference compound] | 8.6 ± 1.4 µM | 15.5 ± 1.8 µM | –
5 | NCCCCc1cn(-c2ccc(-c3nc(-c4ccc(Oc5ccccc5)cc4)c(-c4ccccc4)s3)c(OCCN3CCNC3=O)c2)nn1.O=C(O)C(F)(F)F [19c, 1-(2-(5-(4-(4-Ammoniobutyl)-1H-1,2,3-triazol-1-yl)-2-(4-([4-phenyloxyphenyl]-1-yl)-5-phenylthiazol-2-yl)phenoxy)ethyl)imidazolidin-2-one 2,2,2-Trifluoroacetate] | 16.9 ± 2.7 µM | > 75 µM | –
6 | NCCCCc1cn(-c2ccc(-c3nc(CCc4ccc5ccccc5c4)cs3)c(OCCN3CCNC3=O)c2)nn1.O=C(O)C(F)(F)F [12b, 1-(2-(5-(4-(4-Ammoniumbutyl)-1H-1,2,3-triazol-1-yl)-2-(4-(2-(naphthalen-2-yl)ethyl)thiazol-2-yl)phenoxy)ethyl)imidazolidin-2-one 2,2,2-Trifluoroacetate] | 5.9 ± 1.1 µM | > 75 µM | –
7 | NCCCCc1cn(-c2ccc(-c3nc(-c4ccccc4)c(-c4ccccc4)s3)c(OCCN3CCNC3=O)c2)nn1.O=C(O)C(F)(F)F [19a, 1-(2-(5-(4-(4-Ammoniobutyl)-1H-1,2,3-triazol-1-yl)-2-(4,5-diphenylthiazol-2-yl)phenoxy)ethyl)imidazolidin-2-one 2,2,2-Trifluoroacetate] | 4.3 ± 1 µM | – | –
8 | NCCCCc1cn(-c2ccc(-c3nc(CCc4ccc(-c5ccccc5)cc4)cs3)c(OCCN3CCNC3=O)c2)nn1.O=C(O)C(F)(F)F [12c, 1-(2-(2-(4-(2-([1,1′-Biphenyl]-4-yl)ethyl)thiazol-2-yl)-5-(4-(4-ammoniumbutyl)-1H-1,2,3-triazol-1-yl)phenoxy)ethyl)imidazolidin-2-one 2,2,2-Trifluoroacetate] | 10.9 ± 1.8 µM | > 75 µM | –
9 | NCCCCc1cn(-c2ccc(-c3nc(CCc4ccc5c(c4)CCO5)cs3)c(OCCN3CCNC3=O)c2)nn1.O=C(O)C(F)(F)F [12r] | 11.9 ± 0.6 µM | – | –
10 | NCCCCc1cn(-c2ccc(-c3nc(CCc4ccc5c(c4)CCCN5)cs3)c(OCCN3CCNC3=O)c2)nn1.O=C(O)C(F)(F)F.O=C(O)C(F)(F)F [12q] | 6.9 ± 2.1 µM | > 75 µM | –
11 | NCCCc1cn(-c2ccc(-c3nc(CCc4ccc(-c5ccccc5)cc4)cs3)c(OCCN3CCNC3=O)c2)nn1.O=C(O)C(F)(F)F [12i] | 19.7 ± 3.8 µM | > 75 µM | –
12 | NCCCCc1cn(-c2ccc(-c3nc(-c4cccc(-c5csc(-c6ccc(-n7cc(CCCCN)nn7)cc6OCCN6CCNC6=O)n5)c4)cs3)c(OCCN3CCNC3=O)c2)nn1.O=C(O)C(F)(F)F.O=C(O)C(F)(F)F [compound 22, 1,1′-((((1,3-Phenylenebis(thiazole-4,2-diyl))bis(5-(4-(4-ammoniobutyl)-1H-1,2,3-triazol-1-yl)-2,1-phenylene))bis(oxy))bis(ethane-2,1-diyl))bis(imidazolidin-2-one)bis(2,2,2-trifluoroacetate)] | 0.4 ± 0.03 µM | 48.4 ± 14.5 µM | 28 fold
